Data reported in patent US9592224B2, “Substituted benzothiazoles and therapeutic uses thereof for the treatment of human diseases” (CONSEJO SUPERIOR DE INVESTIGACIONES CIENTÍFICAS, priority 2013, dated 2017).

How the values were obtained:
[1] = target: T1, recombinant human enzyme CK-1δ (Homo sapiens, UniProt P48730); experiment: Enzyme inhibition assay, Luminometer Kinase-GLO method, CK-1δ; format: biochemical; conditions: for IC50: casein substrate, 4 μM ATP, 60 minutes at 30° C., read-out: Inhibitory Concentration 50 (IC50) CK-1δ
T1 construct: purchased Millipore Iberica SAU
T1 sequence (P48730 whole entry): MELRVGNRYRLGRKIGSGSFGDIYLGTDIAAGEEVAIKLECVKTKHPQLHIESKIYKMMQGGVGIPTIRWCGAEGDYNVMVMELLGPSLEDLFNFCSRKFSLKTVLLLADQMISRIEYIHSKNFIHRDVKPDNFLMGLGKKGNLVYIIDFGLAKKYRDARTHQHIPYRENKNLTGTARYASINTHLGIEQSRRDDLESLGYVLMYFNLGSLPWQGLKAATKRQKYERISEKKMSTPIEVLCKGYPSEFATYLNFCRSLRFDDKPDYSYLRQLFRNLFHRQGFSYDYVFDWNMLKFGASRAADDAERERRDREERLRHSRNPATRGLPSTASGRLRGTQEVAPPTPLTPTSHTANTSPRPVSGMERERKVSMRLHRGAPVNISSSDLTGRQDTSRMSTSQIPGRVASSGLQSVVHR
Procedure: (§1) Enzyme inhibition assays were performed using the Luminometer Kinase-GLO® method. Recombinant human enzyme CK-1δ was purchased from Millipore Iberica SAU and recombinant human enzyme CK-1ε was purchased from Invitrogen. The phosphorylation substration chosen was casein. The Luminescent Kinase Kit (catalogue no. V6711) was obtained from Promega. ATP and other reagents were purchased from Sigma-Aldrich (St. Louis, Mo.).
(§2) The assays were conducted in buffer using 96-well plates. In a typical assay: 10 μL of the test compound (dissolved in dimethylsulfoxide at a concentration of 1 mM and, in turn, dissolved in buffer to the required concentration for the experiment) and 10 μL (16 ng) of the CK-1δ enzyme or 10 μL (50 ng) of the CK-1ε enzyme row were added to each well followed by 20 μL of buffer containing 0.1% casein as substrate and 4 μM of ATP. The assay buffer contained: 50 mM HEPES, pH 7.5; 0.01% Brij-35; 10 mM MgCl2; 1 mM EGTA and 0.01% NaN3. […] After incubating for 60 minutes at 30° C., the enzymatic reaction was stopped using 40 μL of Kinase-GLO® reagent. Luminescence was measured after ten minutes using a FLUOstar Optima (BMG Labtechnologies GmbH, Offenburg, Germany) multimode reader. The activity was proportional to the difference between the total and consumed ATP. Inhibition activities were calculated in accordance with the maximum activity measured in the absence of inhibitor. IC50 is defined as the concentration of each compound that reduces enzyme activity by 50% with respect to that obtained without inhibitor.

[2] = target: T2, recombinant human enzyme CK-1ε (Homo sapiens, UniProt P49674); experiment: Enzyme inhibition assay, Luminometer Kinase-GLO method, CK-1ε; format: biochemical; conditions: for IC50: casein substrate, 4 μM ATP, 60 minutes at 30° C., read-out: Inhibitory Concentration 50 (IC50) CK-1ε
T2 construct: purchased Invitrogen
T2 sequence (P49674 whole entry): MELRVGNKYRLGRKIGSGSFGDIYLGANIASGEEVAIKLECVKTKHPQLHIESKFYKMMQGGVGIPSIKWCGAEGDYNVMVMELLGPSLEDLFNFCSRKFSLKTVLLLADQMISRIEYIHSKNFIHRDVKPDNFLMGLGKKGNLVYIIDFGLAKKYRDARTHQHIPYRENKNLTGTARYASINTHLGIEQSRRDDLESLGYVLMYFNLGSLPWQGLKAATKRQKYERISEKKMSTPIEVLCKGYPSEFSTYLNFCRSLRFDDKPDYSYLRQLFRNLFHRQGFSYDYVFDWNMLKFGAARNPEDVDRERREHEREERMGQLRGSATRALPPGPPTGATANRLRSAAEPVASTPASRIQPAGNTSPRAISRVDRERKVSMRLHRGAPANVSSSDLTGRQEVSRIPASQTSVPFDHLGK
Procedure: as §1, §2

[3] = in vitro; conditions: pig, pH 7.4; for Papp at […]: PAMPA
Procedure: To filter the samples, PVDF membrane filters (diameter: 30 mm, pore size: 0.45 μm) were used.
Ten reference compounds were selected, whose blood-brain barrier passage is known and public, in order to validate the experiment. […] The solutions were filtered. Next, 180 μL of a PBS/ethanol (70/30) solution were added to each well of the acceptor plate. The donor plate was impregnated with 4 μL of a porcine brain lipid solution dissolved in dodecane (20 mg mL^−1). After 5 min, 180 μL of dissolution of each compound were added to this plate. Of the compounds whose penetration into the central nervous system was to be assessed, between 1-2 mg were taken and dissolved in 1,500 μL of ethanol and 3,500 μL of PBS (pH=7.4), filtered and added to the donor 96-well plate. The donor plate was then placed on the acceptor forming a kind of “sandwich” and allowed to incubate for 2 hours and 30 min at 25° C. The compounds, by passive transport, will move from the donor plate through the porcine brain lipid to the acceptor plate. After 2 hours and 30 min, it was carefully removed from the donor plate. The concentration and absorbance, both of the commercial compounds and the synthesised derivatives evaluated in the acceptor and donor plates were determined using a UV absorbance reader. Each sample was analysed at different wavelengths (3 to 5) in three wells and in at least two independent experiments.

[4] = literature value, Di et al, 2003; cited from earlier work

IC50 [1] [µM]	IC50 [2] [µM]	Papp at […] [3] [×10⁻⁶ cm/s]	SMILES	further results
0.065	0.55	9.6 ± 0.1	O=C(Cc1ccc(Cl)cc1)Nc1nc2ccc(C(F)(F)F)cc2s1 [Compound 1, N-(6-trifluoromethylbenzothiazole-2-yl)-2-(4-chlorophenyl)acetamide]	
0.033	0.7	14.6 ± 0.1	COc1ccc(CC(=O)Nc2nc3ccc(C(F)(F)F)cc3s2)cc1 [Compound 3, N-(6-trifluoromethylbenzothiazole-2-yl)-2-(4-methoxyphenyl)acetamide]	
0.023	0.84	5.9 ± 0.5	O=C(Cc1cccc(Cl)c1)Nc1nc2ccc(C(F)(F)F)cc2s1 [Compound 4, N-(6-trifluoromethylbenzothiazole-2-yl)-2-(3-chlorophenyl)acetamide]	
0.083	0.88	5.6 ± 0.8	Cc1ccc2nc(NC(=O)Cc3cccc(Cl)c3)sc2c1 [Compound 5, N-(6-methylbenzothiazole-2-yl)-2-(3-chlorophenyl)acetamide]	
0.042	0.69	11.2 ± 2	COc1cccc(CC(=O)Nc2nc3ccc(C(F)(F)F)cc3s2)c1 [Compound 6, N-(6-trifluoromethylbenzothiazole-2-yl)-2-(3-methoxyphenyl)acetamide]	
0.01	0.8	11.3 ± 2.1	COc1ccccc1CC(=O)Nc1nc2ccc(C(F)(F)F)cc2s1 [Compound 8, N-(6-trifluoromethylbenzothiazole-2-yl)-2-(2-methoxyphenyl)acetamide]	
0.015	0.37	10.6 ± 0.1	COc1cc(CC(=O)Nc2nc3ccc(C(F)(F)F)cc3s2)cc(OC)c1OC [Compound 10]	
0.047	0.76	10.4 ± 3.9	O=C(Cc1ccccc1)Nc1nc2ccc(C(F)(F)F)cc2s1 [Compound 12, N-(6-trifluoromethylbenzothiazole-2-yl)-2-phenylacetamide]	
0.33	2.31	12.7 ± 1.2	O=C(Cc1ccccc1)Nc1nc2ccccc2s1 [Compound 14, N-(benzothiazole-2-yl)-2-phenylacetamide]	
0.85	2.86	10.6 ± 0.3	O=C(Cc1cccc(Cl)c1)Nc1nc2ccccc2s1 [Compound 20, N-(benzothiazole-2-yl)-2-(3-chlorophenyl)acetamide]	
0.29	4.93	6.2 ± 0.5	COc1ccccc1CC(=O)Nc1nc2ccc(C)cc2s1 [Compound 30, N-(6-methylbenzothiazole-2-yl)-2-(2-methoxyphenyl)acetamide]	
2.22		11.2 ± 0.9	COc1ccc2nc(NC(=O)Cc3ccccc3OC)sc2c1 [Compound 51, N-(6-methoxybenzothiazole-2-yl)-2-(2-methoxyphenyl)acetamide]	inhibition at 10 µM [2]: 33%
5.76			CCOc1ccc2nc(NC(=O)Cc3ccccc3OC)sc2c1 [Compound 52, N-(6-ethoxybenzothiazole-2-yl)-2-(2-methoxyphenyl)acetamide]	inhibition at 10 µM [2]: 46%
1.24	16.5		COc1ccc2nc(NC(=O)Cc3ccc(Cl)c(Cl)c3)sc2c1 [Compound 53, N-(6-methoxybenzothiazole-2-yl)-2-(3,4-dichlorophenyl)acetamide]	
3.43	14.2		CCOc1ccc2nc(NC(=O)Cc3ccc(Cl)c(Cl)c3)sc2c1 [Compound 54, N-(6-ethoxybenzothiazole-2-yl)-2-(3,4-dichlorophenyl)acetamide]	
6.65	17.7		COc1ccc2nc(NC(=O)Cc3cc(OC)c(OC)c(OC)c3)sc2c1 [Compound 55, N-(6-methoxybenzothiazole-2-yl)-2-(3,4,5-trimethoxyphenyl)acetamide]	
1.43	9.83		CCOc1ccc2nc(NC(=O)Cc3cc(OC)c(OC)c(OC)c3)sc2c1 [Compound 56, N-(6-ethoxybenzothiazole-2-yl)-2-(3,4,5-trimethoxyphenyl)acetamide]	
			COc1cc(/C=C/C(=O)Nc2nc3ccc(S(=O)(=O)N(C)C)cc3s2)cc(OC)c1OC [Compound 57, (E)-N-(6-(N,N-dimethylsulfamoyl)benzothiazole-2-yl)-3-(3,4,5-trimethoxyphenyl) acrylamide]	CK-1δ inhibition % @ 10 μM ([1]; @ 10 μM): 10% @; CK-1ε inhibition % @ 10 μM ([2]; @ 10 μM): 10% @
1.17	4.51		COc1ccccc1CC(=O)Nc1nc2ccc(F)cc2s1 [Compound 59, N-(6-fluorobenzothiazole-2-yl)-2-(2-methoxyphenyl)acetamide]	
			CN1C(C(=O)Nc2ccccn2)=C(O)c2ccccc2S1(=O)=O [Piroxicam, reference compound]	Pe (10^−6 cm s^−1) PAMPA-blood-brain barrier permeation ([3]; […]): 0.2 ± 0.1 10^−6 cm s^−1; Bibl. PAMPA-blood-brain barrier permeation (Pe) [4]: 2.5 10^−6 cm s^−1
		8.5 ± 0.1	CN(C)CCCN1c2ccccc2Sc2ccccc21 [Promazine, reference compound]	Bibl. PAMPA-blood-brain barrier permeation (Pe) [4]: 8.8 10^−6 cm s^−1
